In patent publication US12544384B2, “Antibiotic conjugates” (priority 2018, dated 2026):
≈ marks a conversion by molar mass, not a printed value. Read-outs that look alike come from different tables or passages of the source.

Tests used:
[1] = tested on: A. baumannii ATCC 17978 pNT255; experiment: MIC, antimicrobial susceptibility assay, strain with pNT255 vector; type: cell-based; conditions: Acinetobacter baumannii, ATCC17978, read-out: Activity (MIC)
Excerpt: (§1) For this purpose, A. baumannii ATCC 17978, which produces a small amount of the chromosomally-encoded enzyme, and the same strain that produces a large amount of ADC-1 from the pNT255 vector were used (Table 1).

P. aeruginosa KW799/wt = experiment: MIC against other Gram-negative bacteria; conditions: for Antibacterial activity (in words): Pseudomonas aeruginosa KW799
Method: (§3) This plasmid was then introduced by electroporation into A. baumannii ATCC 17978 for MIC measurements. MIC analyses were performed using iron depleted media as described previously (Ghosh, J. Med. Chem., 2017, 60, 4577-4583).

[2] = tested on: A. baumannii ATCC 17978 pNT225: ADC-1; experiment: MIC, antimicrobial susceptibility assay, strain with plasmid-encoded ADC-1 β-lactamase; type: cell-based, Acinetobacter baumannii; conditions: for MIC: Acinetobacter baumannii, ATCC17978, read-out: Activity (MIC)
Excerpt: as §1

ADC-1 β-lactamase = experiment: Enzymatic hydrolysis by ADC-1, LC/MS; type: biochemical, A. baumannii; conditions: 20 μM compound, 20 μM ADC-1, 50 mM sodium phosphate pH 7.4, room temperature, 40 min
Method: With the final siderophore-cephalosporin-oxazolidinone conjugate (1) along with the separate cephalosporin and oxazolidinone conjugates (26 and 27) as well as the corresponding cephalosporin (23), oxazolidinone (3) and eperezolid (17) available, enzymatic and anti-bacterial assays were performed to test the susceptibility of conjugate (1) to the hydrolytic activity of β-lactamases from Gram-negative bacteria. Thus, assays were conducted to evaluate whether the oxazolidinone could be efficiently released from the final siderophore-cephalosporin-oxazolidinone conjugate (1) as a result of cephalosporin hydrolysis by a β-lactamase. For this purpose, one of the ADC-type β-lactamases (ADC-1) was chosen as ADC enzymes are intrinsic to A. baumannii, an important clinical pathogen, and are capable of hydrolyzing cephalosporin antibiotics.
The ADC-1 β-lactamase was expressed and purified as previously described (Bhattacharya et al., Acta Crystallogr., Sect. D: Biol. Crystallogr., 2014, 70, 760-771). Conjugate 1 (10 mM in DMSO) was diluted 5-fold in DMSO and then another 10-fold in 50 mM sodium phosphate, pH 7.4 to give a 200 μM solution with 10% DMSO. Subsequently, a 60 μL reaction was prepared consisting of 20 μM of 1 (6 μL of a 200 μM solution) and 20 μM ADC-1 β-lactamse (8.1 μL of 148 μM enzyme) in 50 mM sodium phosphate, pH 7.4 (the final concentration of DMSO was 1%). […]

[3] = tested on: A. baumannii ATCC BAA 1797; experiment: MIC against clinical isolate; type: cell-based, Acinetobacter baumannii; conditions: for MIC: Acinetobacter baumannii; for Antibacterial activity (in words): clinical isolate ATCC BAA1797
Method: (§2) Subsequently, the activities of the disclosed compounds were evaluated against four clinical isolates of A. baumannii (ATCC 17961, ATCC BAA1793, ATCC BAA1797 and ATTC BAA1800). All four A. baumannii isolates were resistant to compounds 3, 22, 23, and 27. Strain ATCC 17961 was susceptible to both 26 and 1, indicating lack of or low β-lactamase content and/or activity.

[4] = tested on: A. baumannii ATCC BAA 1793; experiment: MIC against clinical isolate; type: cell-based, Acinetobacter baumannii; conditions: for MIC: Acinetobacter baumannii; for Antibacterial activity (in words): clinical isolate ATCC BAA1793
Method: as §2

[5] = tested on: A. baumannii ATCC BAA 1800; experiment: MIC against clinical isolate; type: cell-based, Acinetobacter baumannii; conditions: for MIC: Acinetobacter baumannii; for Antibacterial activity (in words): clinical isolate ATCC BAA1800
Method: as §2

A. baumannii ATCC 17961 = experiment: MIC against clinical isolate; type: cell-based, Acinetobacter baumannii; conditions: for MIC: Acinetobacter baumannii; for Antibacterial activity (in words): clinical isolate ATCC 17961
Method: as §2

E. coli DC0 = experiment: MIC against other Gram-negative bacteria; conditions: for Antibacterial activity (in words): Escherichia coli DC0; for MIC: Escherichia coli, DC0, read-out: Activity (MIC)
Method: as §3

A. baumannii ATCC 17978 = experiment: MIC, antimicrobial susceptibility assay in iron depleted media; type: cell-based, Acinetobacter baumannii; conditions: for Antibacterial activity (in words): A. baumannii ATCC 17978, low amount of ADC-1; for MIC: Acinetobacter baumannii, ATCC17978, A. baumannii ATCC 17978, small amount of chromosomal ADC-1, iron depleted media, average of three measurements
Excerpt: as §1

[6] = tested on: Mycobacterium tuberculosis (Mtb); conditions: background statement; cited from earlier work
[7] = Pseudomonas aeruginosa, KW799/WT, read-out: Activity (MIC)
[8] = BAA1797, read-out: Activity (MIC)
[9] = BAA1793, read-out: Activity (MIC)
[10] = BAA1800, read-out: Activity (MIC)
[11] = ATCC17961, read-out: Activity (MIC)
[12] = BAA1797, A. baumannii ATCC BAA 1797, read-out: Activity (MIC)
[13] = BAA1793, A. baumannii ATCC BAA 1793, read-out: Activity (MIC)
[14] = BAA1800, A. baumannii ATCC BAA 1800, read-out: Activity (MIC)
[15] = ATCC17961, A. baumannii ATCC 17961, read-out: Activity (MIC)

Row | Compound | MIC [1] [µM] | Antibacterial activity (in words) (P. aeruginosa KW799/wt) | MIC (P. aeruginosa KW799/wt; [7]) [µM] | MIC [2] [µM] | MIC [3, 8] [µM] | Antibacterial activity (in words) [3] | MIC [4, 9] [µM] | Antibacterial activity (in words) [4] | MIC [5, 10] [µM] | Antibacterial activity (in words) [5] | MIC (A. baumannii ATCC 17961; [11]) [µM] | Antibacterial activity (in words) (A. baumannii ATCC 17961) | Antibacterial activity (in words) (E. coli DC0) | MIC (E. coli DC0) [µM] | Antibacterial activity (in words) (A. baumannii ATCC 17978) | MIC (A. baumannii ATCC 17978) [µM] | also measured
1 | CC(=O)NC[C@H]1CN(c2ccc(N3CCN(C(=O)CNC(=O)OCC4=C(C(=O)O)N5C(=O)[C@@H](NC(=O)C(NC(=O)CN(CCCCNC(=O)c6cccc(O)c6O)C(=O)c6cccc(O)c6O)c6ccccc6)[C@H]5SC4)CC3)c(F)c2)C(=O)O1 (stereo partly drawn) [Compound 1, (6R,7R)-3-((((2-(4-(4-((S)-5-(Acetamidomethyl)-2-oxooxazolidin-3-yl)-2-fluorophenyl)piperazin-1-yl)-2-oxoethyl)carbamoyl)oxy)methyl)-7-(2-(2-(N-(4-(2,3-dihydroxybenzamido)butyl)-2,3-dihydroxybenzamido)acetamido)-2-phenylacetamido)-8-oxo-5-thia-1-azabicyclo[4.2.0]oct-2-ene-2-carboxylic acid] | 0.4 (≈ 0.473 µg/mL) | remarkably active | 0.2 to 0.4 (≈ 0.237 to 0.473 µg/mL) | 6 (≈ 7.1 µg/mL) | 6.25 (≈ 7.39 µg/mL) | very active | 0.8 to 1.6 (≈ 0.947 to 1.89 µg/mL) | very active | 0.8 (≈ 0.947 µg/mL) | very active | 0.8 (≈ 0.947 µg/mL) | susceptible | remarkably active | < 0.025 | similarly potent activity | 0.4 (≈ 0.473 µg/mL) | Decrease of MIC compared to the siderophore-cephalosporin ([2]; A. baumannii with plasmid-encoded β-lactamase, versus 26): at least 8 fold; Hydrolysis by purified ADC-1 and release of oxazolidinone (ADC-1 β-lactamase): rapid and complete hydrolysis and release of the oxazolidinone
2 | CC(=O)NC[C@H]1CN(c2ccc(N3CCN(C(=O)CN)CC3)c(F)c2)C(=O)O1 [Compound 3, (S)—N-((3-(3-Fluoro-4-(4-glycylpiperazin-1-yl)phenyl)-2-oxooxazolidin-5-yl)methyl)acetamide] | > 500 | not active | > 50 | > 500 | > 50 | resistant | > 50 | resistant | > 50 | resistant | > 50 | resistant | not active | > 50 | not active | > 500 | –
3 | CC(=O)NC[C@H]1CN(c2ccc(N3CCN(C(=O)CO)CC3)c(F)c2)C(=O)O1 [Compound 17, eperezolid, reference compound] | > 50 | – | – | > 50 | – | – | – | – | – | – | – | – | – | – | not active | > 50 | –
4 | CC(=O)NC[C@H]1CN(c2ccc(N3CCN(C(=O)CNC(=O)OCC4=C(C(=O)O)N5C(=O)[C@@H](NC(=O)C(N)c6ccccc6)[C@H]5SC4)CC3)c(F)c2)C(=O)O1 (stereo partly drawn) [Compound 22, (6R,7R)-3-((((2-(4-(4-((S)-5-(Acetamidomethyl)-2-oxooxazolidin-3-yl)-2-fluorophenyl)piperazin-1-yl)-2-oxoethyl)carbamoyl)oxy)methyl)-7-(2-amino-2-phenylacetamido)-8-oxo-5-thia-1-azabicyclo[4.2.0]oct-2-ene-2-carboxylic acid] | > 50 | not active | > 50 | > 50 | – | resistant | – | resistant | – | resistant | – | resistant | not active | > 50 | not active | > 50 | MIC [3, 12]: > 50 µM; MIC [4, 13]: > 50 µM; MIC [5, 14]: > 50 µM; MIC (A. baumannii ATCC 17961; [15]): > 50 µM
5 | CC(=O)OCC1=C(C(=O)O)N2C(=O)[C@@H](NC(=O)C(NC(=O)CN(CCCCNC(=O)c3cccc(O)c3O)C(=O)c3cccc(O)c3O)c3ccccc3)[C@H]2SC1 (stereo partly drawn) [Compound 26, (6R,7R)-3-(Acetoxymethyl)-7-(2-(2-(N-(4-(2,3-dihydroxybenzamido)butyl)-2,3-dihydroxybenzamido)acetamido)-2-phenylacetamido)-8-oxo-5-thia-1-azabicyclo[4.2.0]oct-2-ene-2-carboxylic acid] | 0.4 (≈ 0.322 µg/mL) | remarkably active | 0.4 (≈ 0.322 µg/mL) | > 50 | – | resistant | – | detectable activity | – | detectable activity | – | susceptible | remarkably active | < 0.025 | remarkably active | 0.4 (≈ 0.322 µg/mL) | MIC (P. aeruginosa KW799/wt; vs P. aeruginosa KW799/wt): 0.4; Antibacterial activity (in words) ([2]; A. baumannii with plasmid-encoded β-lactamase (pNT255:adc1)): highly resistant; MIC [3, 12]: > 50 µM; MIC [4, 13]: 12.5 µM (≈ 10.1 µg/mL); MIC [5, 14]: 25 µM (≈ 20.1 µg/mL); MIC (A. baumannii ATCC 17961; [15]): 0.8 µM (≈ 0.645 µg/mL)
6 | CC(=O)NC[C@H]1CN(c2ccc(N3CCN(C(=O)CNC(=O)CN(CCCCNC(=O)c4cccc(O)c4O)C(=O)c4cccc(O)c4O)CC3)c(F)c2)C(=O)O1 [Compound 27, (S)—N-(2-((2-(4-(4-(5-(Acetamidomethyl)-2-oxooxazolidin-3-yl)-2-fluorophenyl)piperazin-1-yl)-2-oxoethyl)amino)-2-oxoethyl)-N-(4-(2,3-dihydroxybenzamido)butyl)-2,3-dihydroxybenzamide] | > 50 | not active | > 50 | > 50 | > 50 | resistant | > 50 | resistant | > 50 | resistant | > 50 | resistant | not active | > 50 | not active | > 50 | –
7 | C[C@@H]1CC[C@H]2[C@@H](C)C(=O)O[C@@H]3O[C@@]4(C)CC[C@@H]1[C@]32OO4 [artemisinin] | – | – | – | – | – | – | – | – | – | – | – | – | – | – | – | – | Anti-tuberculosis activity (in words) [6]: no anti-tuberculosis activity
